Measured values taken from paper PMC5402281, “Functional, thermodynamics, structural and biological studies of in silico-identified inhibitors of Mycobacterium tuberculosis enoyl-ACP(CoA) reductase enzyme” (Scientific Reports, 2017).
Like-named read-outs stand apart in the source and are kept apart here. Marks after values point to notes of the source that are not given here.

What was measured:
MtInhA [1] = target: T1, MtInhA (Mycobacterium tuberculosis, UniProt P9WGR1); assay: MtInhA enzyme inhibition by steady-state kinetics (NADH oxidation at 340 nm); format: biochemical; details: for inhibitory activity towards MtInhA: IC50 screening; for mode of inhibition with respect to NADH / mode of inhibition with respect to DD-CoA: Lineweaver-Burk plot; for IC50: NADH 60 μM, DD-CoA 45 μM, 25 °C, Pipes pH 7.0, read-out: IC50; for Ki: EI complex; for Ki DD-CoA Kii / Ki NADH Kii: ESI complex
T1 construct: made in house
T1 sequence (P9WGR1 whole entry, looked up): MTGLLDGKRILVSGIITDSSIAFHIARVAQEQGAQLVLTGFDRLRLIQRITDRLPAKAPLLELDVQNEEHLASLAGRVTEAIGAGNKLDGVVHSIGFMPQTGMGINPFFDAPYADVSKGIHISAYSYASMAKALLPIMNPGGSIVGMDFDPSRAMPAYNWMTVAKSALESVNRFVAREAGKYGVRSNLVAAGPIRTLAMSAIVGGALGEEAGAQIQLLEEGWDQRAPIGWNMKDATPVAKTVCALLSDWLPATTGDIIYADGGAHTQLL
Procedure: In order to assess the relative potency of the compounds, inhibition studies were performed by steady-state kinetic studies using a UV-2550 UV/Visible spectrophotometer (Shimadzu^©), monitoring the NADH oxidation at 340 nm (εβ-NADH = […]), in the forward direction. Experiments were performed at 25 °C, in 100 mM Pipes pH 7.0 and were started with the addition of the 2.2 μM MtInhA to a total reaction volume of 500 μL, and monitoring the change in absorbance for 1 min. […] This is needed as IC50 and classical competitive, non-competitive and uncompetitive inhibition modes follow a rapid equilibrium process. Accordingly, MtInhA (2.2 μM) was pre-incubated with inhibitor (10 μM), aliquots were taken at different times and added to the reaction mixture containing NADH (60 μM) and DD-CoA (45 μM), and initial velocity measurements were plotted as a function of time of pre-incubation[6]. Control experiments were carried out pre-incubating MtInhA (2.2 μM) with DMSO (5%) in the absence of inhibitors, and initial velocity measured as a function of time of pre-incubation[6].
The IC50 value, which defines the concentration of inhibitor required to […], was calculated for each compound. The maximal rate for the enzyme reaction was determined in the absence of inhibitor, in the presence of fixed non-saturating concentration of NADH (60 μM ≅ Km) and DD-CoA (45 μM ≅ Km)[10][11][14]. The reaction velocity was analyzed as the percentage of inhibition as a function of inhibitor concentration and data were fitted to Eq 1.
The most promising compounds were further evaluated to assess the inhibition profile and to determine the inhibition constant (Ki). Initial rates were measured as a function of NADH concentration (10–160 μM) at fixed non-saturating DD-CoA concentration (45 μM) and fixed-varied inhibitor concentrations (0.5–120 μM). The Ki values towards NADH were calculated using the uncompetitive equation (Eq. 2) for compounds Labio_6 and Labio_16, in which [I] is the inhibitor concentration, [S] is the substrate concentration, Km and Vmax are, respectively, the Michaelis-Menten constant and maximum velocity, and Kii is the overall inhibition constant for the ESI complex. The Ki of Labio_03 was determined previously.
For compounds Labio_2, Labio_11, Labio_15 and Labio_17, the Ki values with respect to NADH were calculated using Eq. 3, which describes a non-competitive inhibition, where [I] is the inhibitor concentration, [S] is the substrate concentration, Km and Vmax are, respectively, the Michaelis-Menten constant and maximum velocity, Kii is the overall inhibition constant for the ESI complex and Kis is the overall inhibition constant for the EI complex.
Inhibition studies were also carried out in the presence of fixed non-saturating concentration of NADH (60 μM) and fixed-varied inhibitor concentrations (0.5–120 μM), when DD-CoA was the variable substrate (15–135 μM). For compounds Labio_2, Labio_6, and Labio_16, the inhibition constants for the DD-CoA substrate were determined using Eq. 3 for the non-competitive mode of inhibition. For compounds Labio_11, Labio_15 and Labio_17, the Ki for this substrate were calculated from data fitting to the equation for competitive inhibition (Eq. 4), in which [I] is the inhibitor concentration, [S] is the substrate concentration, Km and Vmax are, respectively, the Michaelis-Menten constant and maximum velocity, and Kis is the overall inhibition constant for the EI complex.

M. tuberculosis H37Rv = assay: microbe, parasite or virus in culture; format: cell-based; details: Mycobacterium tuberculosis, 216 h, 7 days + 48 h resazurin, read-out: MIC H37Rv
[2] = target: T2, MtInhA:NADH binary complex (Mycobacterium tuberculosis, UniProt P9WGR1); assay: biochemical; format: binding; details: for Kd: 25 °C (298.15 K); for ΔG: estimated from ΔH and ΔS (Eq. 7); for ΔH / ΔS: van't Hoff analysis, 15–30 °C
T2 construct: made in house
T2 sequence (P9WGR1 whole entry, looked up, one chain of several): as the sequence (P9WGR1 whole entry, looked up) above

[3] = tested on: M. tuberculosis H37Rv in infected RAW 264.7 macrophages; assay: Intracellular activity in M. tuberculosis-infected macrophages (CFU); format: cell-based, Mycobacterium tuberculosis; details: 5 μM; for decrease in CFU counts compared to early control / decrease in CFU counts compared to untreated late control: 5 days; for Mean log CFU/well ± SEM: 5 days of incubation
MtInhA [4] = target: T1, MtInhA; parameters: method as in PMID 23889525; details: ESI complex; determined previously ref 12; cited from earlier work
[5] = varied DD-CoA 15–135 μM, fixed NADH 60 μM, read-out: Ki DD-CoA Kis
[6] = varied DD-CoA 15–135 μM, fixed NADH 60 μM
[7] = varied NADH 10–160 μM, fixed DD-CoA 45 μM
[8] = varied NADH 10–160 μM, fixed DD-CoA 45 μM, read-out: Ki NADH Kis

Structure (SMILES) | inhibitory activity towards MtInhA (MtInhA [1]) | MIC (M. tuberculosis H37Rv) | mode of inhibition with respect to NADH (MtInhA [1]; fixed DD-CoA 45 μM) | mode of inhibition with respect to DD-CoA (MtInhA [1]; fixed NADH 60 μM) | IC50 (MtInhA [1]) | Kd [2] | ΔG [2] | ΔH [2] | ΔS [2] | also measured
Cc1cc(NC(=O)Cc2csc(-c3ccsc3)n2)ccc1Br [Labio_9] | no inhibitory activity | > 10 µg/mL |  |  |  |  |  |  |  | 
COc1cccc(-c2cccc(NC(=O)C3CCN(CC=C(C)C)CC3)c2)c1 [Labio_20] | no inhibitory activity | 23.8 µg/mL |  |  |  |  |  |  |  | 
Cc1ccc(N2C[C@@H](c3nc(-c4ccc(OC(C)C)cc4)no3)CC2=O)cc1C [Labio_8] | no inhibitory activity | > 10 µg/mL |  |  |  |  |  |  |  | 
COc1ccc(CCC(=O)Nc2nn3cc(-c4ccccc4)nc3s2)cc1 [Labio_6] |  | > 10 µg/mL | uncompetitive | non-competitive | 9.8 ± 0.9 µM | 3.1 ± 0.4 µM | -7.6 ± 0.7 kcal/mol | -44.7 ± 3.6 kcal/mol | −124.2 ± 12.3 cal.mol^−1.K^−1 | Ki (MtInhA [1]; [5]): 0.7 ± 0.2 µM; Ki DD-CoA Kii (MtInhA [1]; [6]): 0.7 ± 0.1 µM; Ki NADH Kii (MtInhA [1]; [7]): 1.8 ± 0.2 µM
O=C(Cc1csc(-c2ccccn2)n1)Nc1ccccc1Oc1ccccc1 [Labio_1] | no inhibitory activity | > 10 µg/mL |  |  |  |  |  |  |  | 
O=C(CNC(=O)c1ccc2c(c1)OCO2)Nc1ccc(Nc2ccccc2)cc1 [Labio_12] | no inhibitory activity | > 100 µg/mL |  |  |  |  |  |  |  | 
CO[C@H]1/C=C/O[C@@]2(C)Oc3c(C)c(O)c4c(O)c(c(/C=N/N5CCN(C)CC5)c(O)c4c3C2=O)NC(=O)/C(C)=C\C=C\[C@H](C)[C@H](O)[C@@H](C)[C@@H](O)[C@@H](C)[C@H](OC(C)=O)[C@@H]1C [Rifampin] |  |  |  |  |  |  |  |  |  | decrease in CFU counts compared to early control [3]: 1.7 log10; decrease in CFU counts compared to untreated late control [3]: 2.3 log10; Mean log CFU/well ± SEM [3]: 2.4 ± 0.1***^+++ log CFU/well
CCCOc1ccc(-c2nnc(NC(=O)Nc3ccccc3C)s2)cc1 [Labio_3] |  | 11.2 µg/mL | uncompetitive | uncompetitive | 19 ± 2 µM | 4.4 ± 0.4 µM | -7.4 ± 0.7 kcal/mol | -27.8 ± 1.8 kcal/mol | −68.5 ± 6.3 cal.mol^−1.K^−1 | Ki DD-CoA Kii (MtInhA [4]): 20 ± 2 µM; Ki NADH Kii (MtInhA [4]): 24 ± 3 µM
Cc1cccc(NC(=O)/C(C#N)=C/c2ccc(OCc3ccccc3)cc2)n1 [Labio_7] | no inhibitory activity | > 10 µg/mL |  |  |  |  |  |  |  | 
Cc1nc([C@H](C)NC(=O)c2ccc3oc(Cc4ccccc4F)nc3c2)cs1 [Labio_2] |  | > 100 µg/mL | non-competitive | non-competitive | 18 ± 2 µM | 2.2 ± 0.2 µM | -7.7 ± 0.7 kcal/mol | -37.7 ± 2.7 kcal/mol | −100.5 ± 9.2 cal.mol^−1.K^−1 | Ki (MtInhA [1]; [5]): 0.7 ± 0.4 µM; Ki DD-CoA Kii (MtInhA [1]; [6]): 0.7 ± 0.2 µM; Ki (MtInhA [1]; [8]): 2.3 ± 0.8 µM; Ki NADH Kii (MtInhA [1]; [7]): 2.2 ± 0.6 µM
NNC(=O)c1ccncc1 [INH, Isoniazid] |  | 0.31 µg/mL |  |  |  |  |  |  |  | decrease in CFU counts compared to early control [3]: 1.7 log10; decrease in CFU counts compared to untreated late control [3]: 2.3 log10; Mean log CFU/well ± SEM [3]: 2.4 ± 0.1***^+++ log CFU/well
Cc1ccc(N2C[C@@H](c3nc(-c4ccc(OC(C)C)cc4)no3)CC2=O)c(C)c1 [Labio_13] | no inhibitory activity | > 10 µg/mL |  |  |  |  |  |  |  | 
COc1ccc(-c2n[nH]cc2/C=N\NC(=O)c2cc(C)nc3c(C)cccc23)cc1 [Labio_11] |  | > 100 µg/mL | non-competitive | competitive | 87 ± 3 µM | 17.9 ± 1.1 µM | -6.5 ± 0.9 kcal/mol | -18.7 ± 1.7 kcal/mol | −40.9 ± 5.9 cal.mol^−1.K^−1 | Ki (MtInhA [1]; [5]): 27 ± 3 µM; Ki (MtInhA [1]; [8]): 44 ± 14 µM; Ki NADH Kii (MtInhA [1]; [7]): 41 ± 6 µM
CCN(CC)Cc1cc(-c2ccnc3cc(Cl)ccc23)ccc1O [Labio_15] |  | 25 µg/mL | non-competitive | competitive | 83 ± 2 µM | 29.4 ± 2.1 µM | -6.2 ± 1.5 kcal/mol | -9.6 ± 0.8 kcal/mol | −11.5 ± 2.8 cal.mol^−1.K^−1 | Ki (MtInhA [1]; [5]): 74 ± 8 µM; Ki (MtInhA [1]; [8]): 110 ± 26 µM; Ki NADH Kii (MtInhA [1]; [7]): 110 ± 11 µM
